According to the NIST ThermoML archive (doi:10.1016/j.jct.2017.08.004):

Details: for molar entropy: 101.33 kPa

OC[C@@H](O)[C@H](O)[C@@H](O)CO [xylitol]
Details | molar entropy [J/K/mol]
1 K, Crystal, relaxation calorimetry | 0.0003173
2 K, Crystal, relaxation calorimetry | 0.002178
3 K, Crystal, relaxation calorimetry | 0.007217
4 K, Crystal, relaxation calorimetry | 0.01724
5 K, Crystal, relaxation calorimetry | 0.03429
6 K, Crystal, relaxation calorimetry | 0.06064
7 K, Crystal, relaxation calorimetry | 0.09884
8 K, Crystal, relaxation calorimetry | 0.1517
9 K, Crystal, relaxation calorimetry | 0.2221
10 K, Crystal, relaxation calorimetry | 0.3121
15 K, Crystal, relaxation calorimetry | 1.099
20 K, Crystal, relaxation calorimetry | 2.464
25 K, Crystal, relaxation calorimetry | 4.334
30 K, Crystal, relaxation calorimetry | 6.612
35 K, Crystal, relaxation calorimetry | 9.217
40 K, Crystal, relaxation calorimetry | 12.09
45 K, Crystal, relaxation calorimetry | 15.19
50 K, Crystal, relaxation calorimetry | 18.47
55 K, Crystal, relaxation calorimetry | 21.88
60 K, Crystal, relaxation calorimetry | 25.4
65 K, Crystal, relaxation calorimetry | 29.01
70 K, Crystal, relaxation calorimetry | 32.7
75 K, Crystal, relaxation calorimetry | 36.44
80 K, Crystal, relaxation calorimetry | 40.21
85 K, Crystal, relaxation calorimetry | 44.01
90 K, Crystal, relaxation calorimetry | 47.82
95 K, Crystal, relaxation calorimetry | 51.65
100 K, Crystal, relaxation calorimetry | 55.48
110 K, Crystal, relaxation calorimetry | 63.13
120 K, Crystal, relaxation calorimetry | 70.74
130 K, Crystal, relaxation calorimetry | 78.31
140 K, Crystal, relaxation calorimetry | 85.82
150 K, Crystal, relaxation calorimetry | 93.27
160 K, Crystal, relaxation calorimetry | 100.65
170 K, Crystal, relaxation calorimetry | 107.96
180 K, Crystal, relaxation calorimetry | 115.21
190 K, Crystal, relaxation calorimetry | 122.4
200 K, Crystal, relaxation calorimetry | 129.55
210 K, Crystal, relaxation calorimetry | 136.64
220 K, Crystal, relaxation calorimetry | 143.7
230 K, Crystal, relaxation calorimetry | 150.72
240 K, Crystal, relaxation calorimetry | 157.72
250 K, Crystal, relaxation calorimetry | 164.69
260 K, Crystal, relaxation calorimetry | 171.65
270 K, Crystal, relaxation calorimetry | 178.59
273.15 K, Crystal, relaxation calorimetry | 180.78
280 K, Crystal, relaxation calorimetry | 185.53
290 K, Crystal, relaxation calorimetry | 192.47
298.15 K, Crystal, relaxation calorimetry | 198.13
300 K, Crystal, relaxation calorimetry | 199.41
305 K, Crystal, Small sample (50 mg) DSC | 202.93
310 K, Crystal, Small sample (50 mg) DSC | 206.47
315 K, Crystal, Small sample (50 mg) DSC | 210.02
320 K, Crystal, Small sample (50 mg) DSC | 213.58
325 K, Crystal, Small sample (50 mg) DSC | 217.15
330 K, Crystal, Small sample (50 mg) DSC | 220.72
335 K, Crystal, Small sample (50 mg) DSC | 224.31
340 K, Crystal, Small sample (50 mg) DSC | 227.9
345 K, Crystal, Small sample (50 mg) DSC | 231.52
350 K, Crystal, Small sample (50 mg) DSC | 235.17
355 K, Crystal, Small sample (50 mg) DSC | 238.92
360 K, Crystal, Small sample (50 mg) DSC | 243.05
380 K, Liquid, Small sample (50 mg) DSC | 367.99
385 K, Liquid, Small sample (50 mg) DSC | 373.77
390 K, Liquid, Small sample (50 mg) DSC | 379.42
395 K, Liquid, Small sample (50 mg) DSC | 385
400 K, Liquid, Small sample (50 mg) DSC | 390.52
405 K, Liquid, Small sample (50 mg) DSC | 395.99
410 K, Liquid, Small sample (50 mg) DSC | 401.41
415 K, Liquid, Small sample (50 mg) DSC | 406.78
420 K, Liquid, Small sample (50 mg) DSC | 412.1
425 K, Liquid, Small sample (50 mg) DSC | 417.37
430 K, Liquid, Small sample (50 mg) DSC | 422.59
435 K, Liquid, Small sample (50 mg) DSC | 427.75

Details | Normal melting temperature [°C]
Crystal, DTA | 93.0
